Assay results reported in the supplement of paper PMC11061612.

Assays:
Carboplatin = compound: C1CC(C1)(C(=O)[O-])C(=O)[O-].N.N.[Pt+2] [Carboplatin]; conditions: max 10 µM
How it was run: (§1)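 Cancer cell lines were seeded into 1536-well plates in 7.5 μl medium (DMEM/F12 or RPMI, 10% FBS), held 24 hours at 37°C and 5% CO2, and dosed for 72 hours with final DMSO typically 0.2%. Luminescence from CellTiter-Glo 2.0, scaled between blank-well and DMSO-well means, served as viability. The single-agent IC50 was obtained from dose-response fits with a non-linear mixed effects model, each fit being a two-parameter logistic curve.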

AZD5363 = compound: C1CN(CCC1(C(=O)N[C@@H](CCO)C2=CC=C(C=C2)Cl)N)C3=NC=NC4=C3C=CN4 [AZD5363]; conditions: max 10 µM
How it was run: as §1

AZD1775 = compound: C=CCn1c(=O)c2cnc(Nc3ccc(N4CCN(C)CC4)cc3)nc2n1-c1cccc(C(C)(C)O)n1 [AZD1775]; conditions: max 3 µM
How it was run: as §1

Trametinib = compound: CC(=O)Nc1cccc(-n2c(=O)n(C3CC3)c(=O)c3c(Nc4ccc(I)cc4F)n(C)c(=O)c(C)c32)c1 [Trametinib]; conditions: max 1 µM
How it was run: as §1

Paclitaxel = compound: CC(=O)O[C@H]1C(=O)[C@@]2(C)[C@H]([C@H](OC(=O)c3ccccc3)[C@]3(O)C[C@H](OC(=O)[C@H](O)[C@@H](NC(=O)c4ccccc4)c4ccccc4)C(C)=C1C3(C)C)[C@]1(OC(C)=O)CO[C@@H]1C[C@@H]2O [Paclitaxel]; conditions: max 3 µM
How it was run: as §1

Palbociclib = compound: CC(=O)c1c(C)c2cnc(Nc3ccc(N4CCNCC4)cn3)nc2n(C2CCCC2)c1=O [Palbociclib]; conditions: max 10 µM
How it was run: as §1

AZD1390 = compound: CC(C)n1c(=O)n(C)c2cnc3cc(F)c(-c4ccc(OCCCN5CCCCC5)nc4)cc3c21 [AZD1390]; conditions: max 0.3 µM
How it was run: as §1

Venetoclax = compound: CC1(C)CCC(CN2CCN(c3ccc(C(=O)NS(=O)(=O)c4ccc(NCC5CCOCC5)c([N+](=O)[O-])c4)c(Oc4cnc5[nH]ccc5c4)c3)CC2)=C(c2ccc(Cl)cc2)C1 [Venetoclax]; conditions: max 1 µM
How it was run: as §1

Dasatinib = compound: CC1=C(C(=CC=C1)Cl)NC(=O)C2=CN=C(S2)NC3=CC(=NC(=N3)C)N4CCN(CC4)CCO [Dasatinib]; conditions: max 2 µM
How it was run: as §1

SG3199 = compound: CC1=CN2[C@@H](C1)C=NC3=CC(=C(C=C3C2=O)OC)OCCCCCOC4=C(C=C5C(=C4)N=C[C@@H]6CC(=CN6C5=O)C)OC [SG3199]; conditions: max 0.001 µM
How it was run: as §1

AZD2811 = compound: CCN(CCO)CCCOc1ccc2c(Nc3cc(CC(=O)Nc4cccc(F)c4)[nH]n3)ncnc2c1 [AZD2811]; conditions: max 1 µM
How it was run: as §1

SN-38 = compound: CCc1c2c(nc3ccc(O)cc13)-c1cc3c(c(=O)n1C2)COC(=O)[C@]3(O)CC [SN-38]; conditions: max 0.3 µM
How it was run: as §1

AZD0156 = compound: CN(C)CCCOc1ccc(-c2ccc3ncc4c(c3c2)n(C2CCOCC2)c(=O)n4C)cn1 [AZD0156]; conditions: max 3 µM
How it was run: as §1

AZD4320 = compound: CN(CC[C@H](CSC1=CC=CC=C1)NC2=C(C=C(C=C2)S(=O)(=O)NC(=O)C3=CC=C(C=C3)N4CCC(CC4)[C@H](C5=CC=CC=C5C6=CC=C(C=C6)Cl)O)S(=O)(=O)C(F)(F)F)CCO [AZD4320]; conditions: max 1 µM
How it was run: as §1

Alisertib = compound: COc1cc(Nc2ncc3c(n2)-c2ccc(Cl)cc2C(c2c(F)cccc2OC)=NC3)ccc1C(=O)O [Alisertib]; conditions: max 10 µM
How it was run: as §1

Etoposide = compound: COc1cc([C@@H]2c3cc4c(cc3[C@@H](O[C@@H]3O[C@@H]5CO[C@@H](C)O[C@H]5[C@H](O)[C@H]3O)[C@H]3COC(=O)[C@H]23)OCO4)cc(OC)c1O [Etoposide]; conditions: max 10 µM
How it was run: as §1

Gefitinib = compound: COc1cc2ncnc(Nc3ccc(F)c(Cl)c3)c2cc1OCCCN1CCOCC1 [Gefitinib]; conditions: max 10 µM
How it was run: as §1

Prexasertib = compound: COc1cccc(OCCCN)c1-c1cc(Nc2cnc(C#N)cn2)n[nH]1 [Prexasertib]; conditions: max 1 µM
How it was run: as §1

Doxorubicin = compound: COc1cccc2c1C(=O)c1c(O)c3c(c(O)c1C2=O)C[C@@](O)(C(=O)CO)C[C@@H]3O[C@H]1C[C@H](N)[C@H](O)[C@H](C)O1 [Doxorubicin]; conditions: max 1 µM
How it was run: as §1

AZD5153 = compound: COc1nnc2ccc(N3CCC(c4ccc(OCCN5CCN(C)C(=O)[C@H]5C)cc4)CC3)nn12 [AZD5153]; conditions: max 1 µM
How it was run: as §1

Lapatinib = compound: CS(=O)(=O)CCNCc1ccc(-c2ccc3ncnc(Nc4ccc(OCc5cccc(F)c5)c(Cl)c4)c3c2)o1 [Lapatinib]; conditions: max 10 µM
How it was run: as §1

AZD8186 = compound: C[C@@H](Nc1cc(F)cc(F)c1)c1cc(C(=O)N(C)C)cc2c(=O)cc(N3CCOCC3)oc12 [AZD8186]; conditions: max 10 µM
How it was run: as §1

Crizotinib = compound: C[C@@H](Oc1cc(-c2cnn(C3CCNCC3)c2)cnc1N)c1c(Cl)ccc(F)c1Cl [Crizotinib]; conditions: max 10 µM
How it was run: as §1

Savolitinib = compound: C[C@@H](c1ccc2nccn2c1)n1nnc2ncc(-c3cnn(C)c3)nc21 [Savolitinib]; conditions: max 1 µM
How it was run: as §1

AZD6738 = compound: C[C@@H]1COCCN1C2=NC(=NC(=C2)C3(CC3)[S@](=N)(=O)C)C4=C5C=CNC5=NC=C4 [AZD6738]; conditions: max 10 µM
How it was run: as §1

AZD5991 = compound: Cc1c2c(nn1C)CSCc1cc(n(C)n1)CSc1cc(c3ccccc3c1)OCCCc1c(C(=O)O)n(C)c3c-2c(Cl)ccc13 [AZD5991]; conditions: max 1 µM
How it was run: as §1

AZD7648 = compound: Cc1cc2ncnn2cc1Nc1ncc2c(n1)n(C1CCOCC1)c(=O)n2C [AZD7648]; conditions: max 10 µM
How it was run: as §1

Taselisib = compound: Cc1nc(-c2cn3c(n2)-c2ccc(-c4cnn(C(C)(C)C(N)=O)c4)cc2OCC3)n(C(C)C)n1 [Taselisib]; conditions: max 10 µM
How it was run: as §1

Selumetinib = compound: Cn1cnc2c(F)c(Nc3ccc(Br)cc3Cl)c(C(=O)NOCCO)cc21 [Selumetinib]; conditions: max 10 µM
How it was run: as §1

SRA737 = compound: N#Cc1cnc(Nc2cc(NC[C@H]3CNCCO3)c(C(F)(F)F)cn2)cn1 [SRA737]; conditions: max 10 µM
How it was run: as §1

MK-2206 = compound: NC1(c2ccc(-c3nc4ccn5c(=O)[nH]nc5c4cc3-c3ccccc3)cc2)CCC1 [MK-2206]; conditions: max 10 µM
How it was run: as §1

Gemcitabine = compound: Nc1ccn([C@@H]2O[C@H](CO)[C@@H](O)C2(F)F)c(=O)n1 [Gemcitabine]; conditions: max 0.3 µM
How it was run: as §1

[1] = compound: O=C(Nc1ccc2[nH]nc(-c3ccncc3)c2c1)[C@@H]1CCN(CC(=O)N2CCN(c3ccc(-c4ncccn4)cc3)CC2)C1; conditions: max 5 µM
How it was run: as §1

Olaparib = compound: O=C(c1cc(Cc2n[nH]c(=O)c3ccccc23)ccc1F)N1CCN(C(=O)C2CC2)CC1 [Olaparib]; conditions: max 10 µM
How it was run: as §1

5-Fluorouracil = compound: O=c1[nH]cc(F)c(=O)[nH]1 [5-Fluorouracil]; conditions: max 20 µM
How it was run: as §1

Row | Cell Line | IC50, cell viability 72 h (Carboplatin) | IC50, cell viability 72 h (AZD5363) | IC50, cell viability 72 h (AZD1775) | IC50, cell viability 72 h (Trametinib) | IC50, cell viability 72 h (Paclitaxel) | IC50, cell viability 72 h (Palbociclib) | IC50, cell viability 72 h (AZD1390) | IC50, cell viability 72 h (Venetoclax) | IC50, cell viability 72 h (Dasatinib) | IC50, cell viability 72 h (SG3199) | IC50, cell viability 72 h (AZD2811) | IC50, cell viability 72 h (SN-38) | IC50, cell viability 72 h (AZD0156) | IC50, cell viability 72 h (AZD4320) | IC50, cell viability 72 h (Alisertib) | IC50, cell viability 72 h (Etoposide) | IC50, cell viability 72 h (Gefitinib) | IC50, cell viability 72 h (Prexasertib) | IC50, cell viability 72 h (Doxorubicin) | IC50, cell viability 72 h (AZD5153) | IC50, cell viability 72 h (Lapatinib) | IC50, cell viability 72 h (AZD8186) | IC50, cell viability 72 h (Crizotinib) | IC50, cell viability 72 h (Savolitinib) | IC50, cell viability 72 h (AZD6738) | IC50, cell viability 72 h (AZD5991) | IC50, cell viability 72 h (AZD7648) | IC50, cell viability 72 h (Taselisib) | IC50, cell viability 72 h (Selumetinib) | IC50, cell viability 72 h (SRA737) | IC50, cell viability 72 h (MK-2206) | IC50, cell viability 72 h (Gemcitabine) | IC50, cell viability 72 h [1] | IC50, cell viability 72 h (Olaparib) | IC50, cell viability 72 h (5-Fluorouracil)
1 | ES8 (Ewing's Sarcoma) | > 10000 nM | 8220 nM | 522 nM | > 1000 nM | < 3 nM | 9500 nM | > 300 nM | > 1000 nM | > 2000 nM | > 1 nM | 5.8 nM | 1.41 nM | > 3000 nM | > 1000 nM | 16.2 nM | 358 nM | > 10000 nM | 41.7 nM | 79.8 nM | 165 nM | > 10000 nM | > 10000 nM | 1470 nM | > 1000 nM | 3460 nM | > 1000 nM | > 10000 nM | 800 nM | > 10000 nM | > 10000 nM | 5790 nM | 5.64 nM | > 5000 nM | 3250 nM | > 20000 nM
2 | GR-ST (B-Lymphoblastic Leukemia) | > 10000 nM | 4130 nM | 375 nM | > 1000 nM | 9.98 nM | 3060 nM | > 300 nM | > 1000 nM | > 2000 nM | > 1 nM | > 1000 nM | 6.71 nM | > 3000 nM | > 1000 nM | > 10000 nM | 9020 nM | > 10000 nM | 16.8 nM | 684 nM | 41.2 nM | 5910 nM | 4950 nM | 2380 nM | > 1000 nM | 1740 nM | > 1000 nM | > 10000 nM | 874 nM | > 10000 nM | 1750 nM | 2260 nM | 19.8 nM | > 5000 nM | > 10000 nM | > 20000 nM
3 | K-562 (Chronic Myelogenous Leukemia) | > 10000 nM | > 10000 nM | 624 nM | > 1000 nM | 34.1 nM | > 10000 nM | > 300 nM | > 1000 nM | 22.3 nM | > 1 nM | > 1000 nM | 112 nM | > 3000 nM | > 1000 nM | 4680 nM | > 10000 nM | > 10000 nM | 19.5 nM | > 1000 nM | > 1000 nM | > 10000 nM | > 10000 nM | 2110 nM | > 1000 nM | 4140 nM | > 1000 nM | > 10000 nM | > 10000 nM | > 10000 nM | 4120 nM | > 10000 nM | > 300 nM | > 5000 nM | > 10000 nM | > 20000 nM
4 | L-540 (Hodgkin's Lymphoma) | > 10000 nM | > 10000 nM | 299 nM | > 1000 nM | 39.3 nM | > 10000 nM | > 300 nM | > 1000 nM | > 2000 nM | > 1 nM | > 1000 nM | 2.77 nM | > 3000 nM | > 1000 nM | 3880 nM | 779 nM | > 10000 nM | 8.45 nM | 157 nM | 104 nM | > 10000 nM | > 10000 nM | 6590 nM | > 1000 nM | 761 nM | 99.8 nM | > 10000 nM | > 10000 nM | > 10000 nM | 2460 nM | > 10000 nM | 7.55 nM | > 5000 nM | > 10000 nM | 835 nM
5 | MKN28 (Gastric Carcinoma) | > 10000 nM | > 10000 nM | > 3000 nM | > 1000 nM | 1440 nM | > 10000 nM | > 300 nM | > 1000 nM | > 2000 nM | > 1 nM | > 1000 nM | > 300 nM | > 3000 nM | > 1000 nM | > 10000 nM | > 10000 nM | > 10000 nM | 456 nM | > 1000 nM | > 1000 nM | > 10000 nM | > 10000 nM | > 10000 nM | > 1000 nM | > 10000 nM | > 1000 nM | > 10000 nM | > 10000 nM | > 10000 nM | > 10000 nM | > 10000 nM | > 300 nM | > 5000 nM | > 10000 nM | > 20000 nM
